The values that follow are results of earlier work, collected in patent US6110927A, “Loratadine for use as an antiarrhythmic” (Pfizer Inc, priority 1999, dated 2000).

The structures appear in SMILES notation.

The test system of data set [1] is hKv1.5 channels. The conditions noted are these: only at concentrations much higher than therapeutic plasma levels in man.
For data set [2] the following is noted: both with and without a history of similar arrhythmia.
For data set [3] the following is noted: clinical studies.

On to `CCOC(=O)N1CCC(=C2c3ccc(Cl)cc3CCc3cccnc32)CC1` [loratadine, ethyl 4-(8-chloro-5,6-dihydro-11-H-benzo [5,6]cyclohepta-[1,2-b]-pyridin-11-ylidene)-1-piperidinecarboxylate], for which the “block of hKv1.5 channels” value in data set [1] was “blocked hKv1.5 channels in a concentration-, voltage-, time- and use-dependent manner”. In data set [2], the “reported cases of atrial fibrillation with loratadine use” value was “at least 2 cases”.

With `CN(CCOc1ccc(NS(C)(=O)=O)cc1)CCc1ccc(NS(C)(=O)=O)cc1` [dofetilide], the “efficacy in treating patients with atrial arrhythmias” value in data set [3] was “effective in treating patients with atrial arrhythmias”.
